Results from patent US9980489B2, “Stabilized bio-available soluble silicate solution” (priority 2010, dated 2018).

System: silicon accumulator plants, silicon diffusion plants and silicon rejecting plants
Details: foliar spray every week, solution containing 0002 mg/ml Si

silicic acid
effect on growth, production, resistance to infection, color of fruits, shelf life: clear effect
